Measured values taken from PMC8704389, “New Insights into the Hypotensins from Tityus serrulatus Venom: Pro-Inflammatory and Vasopeptidases Modulation Activities” (Toxins, 2021).
No end group written: not given here.

What was measured:
[1] = tested on: murine peritoneal macrophages; experiment: Cell viability of murine peritoneal macrophages, MTT method; assay type: cell-based, BALB/c mice; settings: 24 h
Description: Figure 3 Cytotoxic effect of hypotensins I and II on murine peritoneal macrophages in vitro. Peritoneal exudate macrophages from naïve BALB/c mice were cultured for 24 h in the presence of TsHpt-I (A) and -II (B) at concentrations of 10 µg/mL, 50 µg/mL and 100 µg/mL. Cells cultured with medium alone or in the presence of 5 µg/mL LPS were used as the controls. Cell viability was determined by the MTT method. The results represent the mean ± SD of two independent experiments performed in triplicate. * p < 0.05.
Peritoneal exudate cells (BALB/c naïve mice, n = 6) were collected by two washes with 5 mL of RPMI medium. The cells obtained were washed twice with RMPI medium, at 400 g, for 10 min, at 18 °C, and resuspended in R10 medium (RPMI + 10% fetal cow serum). After counting in a Neubauer chamber, in the presence of Trypan blue, the cell concentration was adjusted to 2 × 10^6 cells/mL. Cells were distributed into 96-well culture plates (2 × 10^5 cells/100 µL/well) and incubated for 2 h at 37 °C and 5% CO2. After incubation, non-adherent cells were discarded, and adherent cells (macrophages) were resuspended in R10 medium containing the respective tested stimuli, at different concentrations, in triplicates, in a final volume of 200 µL/well. Cells resuspended in R10 medium were used as a negative control, and cells stimulated with LPS (5 µg/mL) as a positive control. Cells were then incubated for 24 h at 37 °C and 5% CO2. After this period, the culture supernatants were collected and stored at −80 °C, for subsequent dosage of cytokines, and cell viability was determined by MTT assay.
After a 24-h period of incubation of cells with hypotensins (10 µg/mL, 50 µg/mL and 100 µg/mL), MTT assays were performed, consisting of the addition of 100 µL of R10 containing 0.5 mg/mL of tetrazolium salt 3-(4.5-dimethylthiazol-2-yl)-2,5-diphenyltetrazolium bromide (MTT) in all wells, followed by a new incubation, under the same conditions, for 4 h. Then, the supernatants were discarded, and 100 µL/well of DMSO were added to dissolve the formed crystals. Absorbance was determined in a spectrophotometer at 540 nm. Cell viability was calculated based on the absorbances of the samples and the negative control (cells cultivated only with R10).

NEP = molecular target: T1, NEP (Homo sapiens, UniProt P08473); experiment: Characterization of NEP inhibition (Ki and mechanism, Lineweaver-Burk); assay type: biochemical
T1 construct: gift of Prof; Adriana Carmona, Department of Biophysics, UNIFESP-EPM
Description: Figure 2 Lineweaver–Burk plot of NEP inhibition by TsHpt-I. The inhibition constant (Ki) was determined using four Abz-RGFK-EDDnp substrate concentrations (4 μM, 6 μM, 8 μM and 10 μM), with variation in the concentration of TsHpt-I (3 μM and 4 μM), keeping the amount of enzyme fixed (1.5 ng). The experiment was performed in triplicate.
To determine the inhibition constant (Ki) of TsHpt-I over NEP, four concentrations of Abz-RGFK (Dnp)-OH (4 µM, 6 µM, 8 µM and 10 µM) and 3 µM and 4 µM of TsHpt-I were tested using 1.5 ng of peptidase in 100 µL of final volume of Tris HCl pH 7.5. The Km value of the substrate used was determined to be 14 µM [27]. Controls without the TsHpt-I were also performed in all assays. The reactions were monitored as described above (item 5.2). The Lineweaver–Burk plot was constructed (1/V × 1/(S)) according to the presented mechanism. The Ki was calculated as described by Segel. All assays were performed in triplicate.

normotensive Wistar rats = settings: by potentiating bradykinin; cited from earlier work
Text: Among the linear peptides we have the hypotensins (TsHpt), identified from TsV proteomic analyzes. Both peptides are made up of 25 amino acid residues that contain two consecutive prolines in their C-terminal portion and a punctual difference between TsHpt-I and -II, which is the residue at position 15, being a glutamine in TsHpt-I and a glutamic acid in TsHpt-II. […] The hypothesis is that the vasodilation effect is related to the releas ...

[2] = 10 µg/mL, control (medium) = 100%, two independent experiments in triplicate

T1 sequence (P08473 2-750): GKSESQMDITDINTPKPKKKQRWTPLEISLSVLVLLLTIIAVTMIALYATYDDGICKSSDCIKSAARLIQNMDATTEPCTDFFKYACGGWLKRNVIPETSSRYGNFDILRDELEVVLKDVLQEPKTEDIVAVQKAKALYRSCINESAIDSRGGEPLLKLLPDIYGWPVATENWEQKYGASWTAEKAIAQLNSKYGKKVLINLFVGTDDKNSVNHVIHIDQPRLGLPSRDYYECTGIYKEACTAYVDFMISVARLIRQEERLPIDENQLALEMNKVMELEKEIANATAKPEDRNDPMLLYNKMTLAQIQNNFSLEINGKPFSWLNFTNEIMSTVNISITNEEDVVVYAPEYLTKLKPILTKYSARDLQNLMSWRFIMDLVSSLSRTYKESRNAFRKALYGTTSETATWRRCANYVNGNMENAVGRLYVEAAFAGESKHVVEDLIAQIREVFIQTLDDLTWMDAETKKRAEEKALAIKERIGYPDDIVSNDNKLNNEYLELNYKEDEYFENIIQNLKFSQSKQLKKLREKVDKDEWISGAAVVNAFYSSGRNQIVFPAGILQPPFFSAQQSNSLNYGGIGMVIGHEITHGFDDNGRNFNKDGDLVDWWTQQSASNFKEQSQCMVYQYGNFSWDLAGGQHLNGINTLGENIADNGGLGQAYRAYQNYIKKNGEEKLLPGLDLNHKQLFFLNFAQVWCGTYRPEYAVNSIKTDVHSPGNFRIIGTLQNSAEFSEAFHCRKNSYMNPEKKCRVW

Sequence: AEIDFSGIPEDIIKEIKETNAKPPA [TsHpt-II]
- cell viability [1, 2]: about 75%
- cell viability ([1]; 100 µg/mL): not able to decrease cellular viability

Sequence: AEIDFSGIPEDIIKQIKETNAKPPA [TsHpt-I]
- Ki (NEP): 4.35 µM
- mechanism of inhibition of NEP (NEP; Lineweaver-Burk plot, triplicate): non-competitive inhibitor
- cell viability [1, 2]: about 75%
- cell viability ([1]; 100 µg/mL): not able to decrease cellular viability
- hypotensive activity (normotensive Wistar rats): able to exert hypotensive activity
